Target: T1, Soluble acetylcholine receptor (Aplysia californica, UniProt Q8WSF8)
T1 sequence (Q8WSF8 whole entry): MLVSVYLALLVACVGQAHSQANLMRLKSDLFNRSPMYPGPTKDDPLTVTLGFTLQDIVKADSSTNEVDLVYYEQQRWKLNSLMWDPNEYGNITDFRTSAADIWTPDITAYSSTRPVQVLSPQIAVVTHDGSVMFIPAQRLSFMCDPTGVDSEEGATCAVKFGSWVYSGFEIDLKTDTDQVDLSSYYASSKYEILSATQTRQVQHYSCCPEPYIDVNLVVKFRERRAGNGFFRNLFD
Assay: Displacement [125I]alpha-bungarotoxin from untagged Aplysia californica AChBP expressed in Sf9 cells by competitive binding assay

SMILES: C[C@@H]1NC(=O)[C@@H]2CSSC[C@H](NC(=O)CN)C(=O)N[C@@H](CSSC[C@@H](C(=O)O)NC(=O)[C@H](CCCNC(=N)N)NC(=O)[C@H](Cc3c[nH]c4ccccc34)NC1=O)C(=O)N[C@@H](CO)C(=O)N[C@@H](CC(=O)O)C(=O)N1CCC[C@H]1C(=O)N[C@@H](CCCNC(=N)N)C(=O)N2
- IC50: 33 nM

From ChEMBL document CHEMBL3758090, “Investigation of α-conotoxin unbinding using umbrella sampling” (Bioorg Med Chem Lett, 2016)
